# Assay: Crystallization onset of supersaturated solution stirred at 20° C., followed in a Crystalline PV device with CCD cameras
# Format: physicochemical
# Procedure: (§1) A concentrated solution 2 of (S)-1-(3-(((4-amino-2,2-dioxido-1H-benzo[c][1,2,6]thiadiazin-5-yl)oxy)methyl)piperidin-1-yl)-3-methylbutan-1-one at 1% (w/w) (10000 ppm) was prepared in water. The pH was adjusted to 11 using NaOH to form the (S)-1-(3-(((4-amino-2,2-dioxido-1H-benzo[c][1,2,6]thiadiazin-5-yl)oxy)methyl)piperidin-1-yl)-3-methylbutan-1-one sodium salt, and a homogeneous solution was obtained. Next, a syrup was prepared by mixing an aqueous solution of HFCS, citric acid and deionized water. […] of 100 ppm of (S)-1-(3-(((4-amino-2,2-dioxido-1H-benzo[c][1,2,6]thiadiazin-5-yl)oxy)methyl)piperidin-1-yl)-3-methylbutan-1-one, i.e. about 15 times above the intrinsic solubility of the compound at 20° C. The sample was stirred at 20° C. and crystallization was followed in a Crystalline PV device equipped with CCD cameras. Crystallization started after about 530 minutes.
# as §1, with “acid, HydroxyPropyl Cellulose (HPC) 100k” for “acid”, “deionized water. The final syrup contained 43% fructose, 1% citric acid, 0.05% HPC and 55.95%” for “deionized”, “cameras.” for “cameras. Crystallization started after about 530 minutes.”
# A concentrated solution 2 of (S)-1-(3-(((4-amino-2,2-dioxido-1H-benzo[c][1,2,6]thiadiazin-5-yl)oxy)methyl)piperidin-1-yl)-3-methylbutan-1-one at 1% (w/w) (10000 ppm) was prepared in water. The pH was adjusted to 11 using NaOH to form the (S)-1-(3-(((4-amino-2,2-dioxido-1H-benzo[c][1,2,6]thiadiazin-5-yl)oxy)methyl)piperidin-1-yl)-3-methylbutan-1-one sodium salt, and a homogeneous solution was obtained. Next, a citric acid buffer solution was prepared by mixing 50 mM citric acid in deionised water (pH=2.8). An aliquot of solution 2 was diluted 100 times with the buffer solution to yield a final concentration of 100 ppm of (S)-1-(3-(((4-amino-2,2-dioxido-1H-benzo[c][1,2,6]thiadiazin-5-yl)oxy)methyl)piperidin-1-yl)-3-methylbutan-1-one, i.e. about 15 times above the intrinsic solubility of the compound at 20° C. The sample was stirred at 20° C. and crystallization was followed in a Crystalline PV device equipped with CCD cameras.
# A concentrated solution 2 of (S)-1-(3-(((4-amino-2,2-dioxido-1H-benzo[c][1,2,6]thiadiazin-5-yl)oxy)methyl)piperidin-1-yl)-3-methylbutan-1-one at 1% (w/w) (10000 ppm) was prepared in water. The pH was adjusted to 11 using NaOH to form the (S)-1-(3-(((4-amino-2,2-dioxido-1H-benzo[c][1,2,6]thiadiazin-5-yl)oxy)methyl)piperidin-1-yl)-3-methylbutan-1-one sodium salt, and a homogeneous solution was obtained. Next, a citric acid buffer solution was prepared by mixing 50 mM citric acid and carboxymethyl cellulose (CMC) in deionised water (pH=2.8). The final water solution contained 50 mM citric acid and 0.05% CMC. […]
smiles,measurement,setting,value
"CC(C)CC(=O)N1CCC[C@H](COc2cccc3c2C(N)=NS(=O)(=O)N3)C1 [(S)-1-(3-(((4-amino-2,2-dioxido-1H-benzo[c][1,2,6]thiadiazin-5-yl)oxy)methyl)piperidin-1-yl)-3-methylbutan-1-one]",time until crystallization started,"Example 5 (comparative): 100 ppm, syrup 43 Brix (43% fructose, 1% citric acid), no polymer",about 530 minutes
same,time until first crystals were observed,"Example 6: 100 ppm, syrup 43 Brix with 0.05% HPC 100k",about 3520 minutes
same,time until first crystals were observed,"Example 7 (comparative): 100 ppm, 50 mM citric acid buffer pH 2.8, no polymer",about 166 minutes
same,time until first crystals were observed,"Example 8: 100 ppm, 50 mM citric acid buffer pH 2.8 with 0.05% CMC",about 466 minutes
same,crystallization observation,"Example 9: 100 ppm, syrup 43 Brix with 0.05% HPMC 100k",No crystallization was observed after seven days

# Reference: patent publication US20170188607A1, “SOLUBILIZATION OF A SWEET MODULATOR AND FLAVOR” (Firmenich SA, priority 2014, published 2017)
